Measured values published in patent US20240016942A1, “STAT DEGRADERS AND USES THEREOF” (Kymera Therapeutics, Inc., priority 2020, published 2024).

Target: T1, STAT3 (Homo sapiens, UniProt P40763)
T1 construct: expressed in transfected cells; host or cells: A549
Assay: STAT3 HiBiT degradation assay (Nano-Glo HiBiT lytic detection) in transfected A549 cells
Type: cell-based
Conditions: 24 h compound incubation, read-out: STAT3 HiBIT A549 degradation 24 h: Average external-Abs DC50
Experimental: Example 1. HiBiT Assay Protocol
Compound preparation and Cell seeding: The transfected A549 cells were harvested from dish into cell culture medium and cell numbers counted. Cells were diluted with culture medium to the desired density and 30 μL of cell suspension (about 2000 cells/well) were added into each well of a 384-well cell culture plate as designated and transferred into 37° C. 5% CO2 incubator for 24 h. Compounds were dissolved to 10 mM stock solution and 12 μL of the stock solution was transferred to a 384 LDV-plate. 3 fold, 10-point dilution was performed by transferring 4 μL compound into 8 μL DMSO using a TECAN (EVO200) liquid handler. 30 μl of diluted compound from compound source plate was transferred into the cell plate as designated by using Echo550 and transferred into 37° C. 5% CO2 incubator for 24 h.
Detection: Plates were removed from incubators and equilibrated at room temperature for 15 minutes. Nano-Glo Hibit Lytic Detection reagent (Promega Cat #N3040) was thawed and equilibrated to room temperature before the experiment. 30 μL of Nano-Glo Hibit Lytic Detection reagent was added into each well to be detected. The plates were held at room temperature for 10 min followed by reading on EnSpire.
Data analysis: The remaining activity was calculated following the formula: Remaining Activity (%)=100%×(Lumsample−LumNC)/(LumPC−LumNC). Calculate the IC50 by fitting the curve using Xlfit (v5.3.1.3), equation 201: fit=(A+((B−A)/(1+((x/C)^D)))); A: Botton; B: Top; C: IC50; and D: Slope.
The letter codes for STAT3 DC50 include: A (<0.01 μM), B (0.01-0.1 μM), C (0.1-1.0 μM), and D (>1.0 μM).

T1 sequence (P40763 whole entry): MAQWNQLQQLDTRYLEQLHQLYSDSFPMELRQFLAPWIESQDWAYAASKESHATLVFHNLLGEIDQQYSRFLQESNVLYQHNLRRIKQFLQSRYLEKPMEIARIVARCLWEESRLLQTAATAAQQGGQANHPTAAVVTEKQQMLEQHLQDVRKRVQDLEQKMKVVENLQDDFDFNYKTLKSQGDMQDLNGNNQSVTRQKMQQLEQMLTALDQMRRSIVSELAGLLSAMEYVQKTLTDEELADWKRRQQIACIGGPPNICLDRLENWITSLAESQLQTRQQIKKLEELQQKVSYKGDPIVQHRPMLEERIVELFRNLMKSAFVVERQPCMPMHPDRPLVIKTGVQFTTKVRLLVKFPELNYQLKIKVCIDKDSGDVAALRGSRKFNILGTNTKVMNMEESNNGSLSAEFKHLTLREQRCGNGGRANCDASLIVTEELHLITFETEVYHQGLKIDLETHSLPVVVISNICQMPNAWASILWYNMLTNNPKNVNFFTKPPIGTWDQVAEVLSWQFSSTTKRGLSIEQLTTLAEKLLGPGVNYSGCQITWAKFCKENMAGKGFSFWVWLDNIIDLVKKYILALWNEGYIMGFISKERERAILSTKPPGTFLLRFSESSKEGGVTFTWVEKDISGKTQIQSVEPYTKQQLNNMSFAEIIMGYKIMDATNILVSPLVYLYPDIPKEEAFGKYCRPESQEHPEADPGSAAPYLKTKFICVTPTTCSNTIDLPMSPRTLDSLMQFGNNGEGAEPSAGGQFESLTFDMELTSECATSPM

| Structure (SMILES) | DC50 [nM] |
| --- | --- |
| Cn1c(=O)n(C2CCC(=O)NC2=O)c2ccc(CCCCc3cccc(OC[C@H](CCC(N)=O)NC(=O)[C@@H]4CC[C@@H]5CCCC[C@H](NC(=O)c6cc7cc(C(=O)P(=O)(O)O)ccc7[nH]6)C(=O)N54)c3Cl)cc21 (stereo partly drawn) [I-32] | > 1000 |
| CC(C)c1ccc(CNC(=O)[C@H](CCC(N)=O)NC(=O)[C@@H]2CC[C@@H]3CCN(C(=O)[C@H]4CC[C@@H](CCc5ccc6c(c5)n(C)c(=O)n6C5CCC(=O)NC5=O)CC4)C[C@H](NC(=O)c4cc5cc(C(=O)P(=O)(O)O)ccc5[nH]4)C(=O)N32)c(F)c1 (stereo partly drawn) [I-34] | 10 to 100 |
| CC(C)c1ccc(CNC(=O)[C@H](CCC(N)=O)NC(=O)[C@@H]2CC[C@@H]3CCN(C(=O)[C@H]4CC[C@@H](CCc5ccc6c(c5)n(C)c(=O)n6C5CCC(=O)NC5=O)CC4)C[C@H](NC(=O)c4cc5cc(C(=O)P(=O)(O)O)ccc5[nH]4)C(=O)N32)c(Cl)c1 (stereo partly drawn) [I-35, 2-[[(5S,8S,10aR)-8-[[(1S)-3-Carbamoyl-1-[[(2-chloro-4-isopropylphenyl)methyl]carbamoyl]propyl]carbamoyl]-6-oxo-3-[(1r,4s)-4-[2-[1-(2,6-dioxopiperidin-3-yl)-3-methyl-2-oxo-1,3-benzodiazol-5-yl]ethyl]cyclohexanecarbonyl]-octahydropyrrolo[1,2-a][1,5]diazocin-5-yl]carbamoyl]-1H-indole-5-carbonylphosphonic acid] | 10 to 100 |
| Cc1ncsc1-c1ccc([C@H](C)NC(=O)[C@@H]2C[C@@H](O)CN2C(=O)[C@@H](NC(=O)CCCCCc2cccc(OC[C@H](CCC(N)=O)NC(=O)[C@@H]3CC[C@@H]4CCN(C(=O)C[C@H]5CC[C@@H](Cc6ccc7c(c6)n(C)c(=O)n7C6CCC(=O)NC6=O)CC5)C[C@H](NC(=O)c5cc6cc(C(=O)P(=O)(O)O)ccc6[nH]5)C(=O)N43)c2F)C(C)(C)C)cc1 (stereo partly drawn) [I-36] | 10 to 100 |
| Cn1c(=O)n(C2CCC(=O)NC2=O)c2ccc(CC[C@H]3CC[C@@H](C(=O)N4CC[C@H]5CC[C@@H](C(=O)N[C@@H](CCC(N)=O)c6nc7ccccc7s6)N5C(=O)[C@@H](NC(=O)c5cc6cc(C(=O)P(=O)(O)O)ccc6[nH]5)C4)CC3)cc21 (stereo partly drawn) [I-37] | 10 to 100 |
| Cn1c(=O)n(C2CCC(=O)NC2=O)c2ccc(C[C@H]3CC[C@@H](CC(=O)N4CC[C@H]5CC[C@@H](C(=O)N[C@@H](CCC(N)=O)C(=O)NC6(c7ccc(S(C)(=O)=O)cc7)CC6)N5C(=O)[C@@H](NC(=O)c5cc6cc(C(=O)P(=O)(O)O)ccc6[nH]5)C4)CC3)cc21 (stereo partly drawn) [I-38] | 100 to 1000 |
| Cn1c(=O)n(C2CCC(=O)NC2=O)c2ccc(CC[C@H]3CC[C@@H](C(=O)N4CC[C@H]5CC[C@@H](C(=O)N[C@@H](CCC(N)=O)c6ccccn6)N5C(=O)[C@@H](NC(=O)c5cc6cc(C(=O)P(=O)(O)O)ccc6[nH]5)C4)CC3)cc21 (stereo partly drawn) [I-39] | 10 to 100 |
| C[C@@H](NC(=O)[C@H](CCC(N)=O)NC(=O)[C@@H]1CC[C@@H]2CCN(C(=O)C[C@H]3CC[C@@H](Cc4ccc5c(c4)n(C)c(=O)n5C4CCC(=O)NC4=O)CC3)C[C@H](NC(=O)c3cc4cc(C(=O)P(=O)(O)O)ccc4[nH]3)C(=O)N21)c1ccc(S(C)(=O)=O)cc1 (stereo partly drawn) [I-40] | 100 to 1000 |
| C[C@H](NC(=O)[C@H](CCC(N)=O)NC(=O)[C@@H]1CC[C@@H]2CCN(C(=O)C[C@H]3CC[C@@H](Cc4ccc5c(c4)n(C)c(=O)n5C4CCC(=O)NC4=O)CC3)C[C@H](NC(=O)c3cc4cc(C(=O)P(=O)(O)O)ccc4[nH]3)C(=O)N21)c1ccc(S(C)(=O)=O)cc1 (stereo partly drawn) [I-41] | 100 to 1000 |
| CC(=O)N1CC[C@H]2CC[C@@H](C(=O)N[C@@H](CCC(N)=O)COc3cccc(CCCC(=O)N[C@H](C(=O)N4C[C@@H](O)C[C@H]4C(=O)N[C@@H](C)c4ccc(-c5scnc5C)cc4)C(C)(C)C)c3Cl)N2C(=O)[C@@H](NC(=O)c2cc3cc(C(=O)P(=O)(O)O)ccc3[nH]2)C1 [I-42] | > 1000 |
| CC(=O)N1CC[C@H]2CC[C@@H](C(=O)N[C@@H](CCC(N)=O)COc3cccc(CCCCC(=O)N[C@H](C(=O)N4C[C@@H](O)C[C@H]4C(=O)N[C@@H](C)c4ccc(-c5scnc5C)cc4)C(C)(C)C)c3Cl)N2C(=O)[C@@H](NC(=O)c2cc3cc(C(=O)P(=O)(O)O)ccc3[nH]2)C1 [I-43] | > 1000 |
| Cn1c(=O)n(C2CCC(=O)NC2=O)c2ccc(C[C@H]3CC[C@@H](CC(=O)N4CC[C@H]5CC[C@@H](C(=O)N[C@@H](CCC(N)=O)C(=O)NCc6ccc(S(C)(=O)=O)cc6F)N5C(=O)[C@@H](NC(=O)c5cc6cc(C(=O)P(=O)(O)O)ccc6[nH]5)C4)CC3)cc21 (stereo partly drawn) [I-44] | 10 to 100 |
| Cn1c(=O)n(C2CCC(=O)NC2=O)c2ccc(C[C@H]3CC[C@@H](CC(=O)N4CC[C@H]5CC[C@@H](C(=O)N[C@@H](CCC(N)=O)C(=O)NCc6ccc(S(C)(=O)=O)cc6Cl)N5C(=O)[C@@H](NC(=O)c5cc6cc(C(=O)P(=O)(O)O)ccc6[nH]5)C4)CC3)cc21 (stereo partly drawn) [I-45] | 10 to 100 |
| Cn1c(=O)n(C2CCC(=O)NC2=O)c2ccc(NC[C@H]3CC[C@H](C(=O)N4CC[C@H]5CC[C@@H](C(=O)N[C@@H](CCC(N)=O)C(=O)NCc6ccc(S(C)(=O)=O)cc6)N5C(=O)[C@@H](NC(=O)c5cc6cc(C(=O)P(=O)(O)O)ccc6[nH]5)C4)CC3)cc21 (stereo partly drawn) [I-47] | 10 to 100 |
| Cn1c(=O)n(C2CCC(=O)NC2=O)c2ccc(NC[C@H]3CC[C@@H](C(=O)N4CC[C@H]5CC[C@@H](C(=O)N[C@@H](CCC(N)=O)C(=O)NCc6ccc(S(C)(=O)=O)cc6)N5C(=O)[C@@H](NC(=O)c5cc6cc(C(=O)P(=O)(O)O)ccc6[nH]5)C4)CC3)cc21 (stereo partly drawn) [I-48] | 10 to 100 |
| C[C@H](CCC(N)=O)NC(=O)[C@@H]1Cc2cc(CCCCCCc3ccc4c(c3)n(C)c(=O)n4C3CCC(=O)NC3=O)cc3c2N1C(=O)[C@@H](NC(=O)c1cc2cc(C(=O)P(=O)(O)O)ccc2[nH]1)CC3 (stereo partly drawn) [I-49] | 10 to 100 |
| C[C@H](CCC(N)=O)NC(=O)[C@@H]1CC[C@@H]2CCN(C(=O)C[C@H]3CC[C@@H](Cc4ccc5c(c4)n(C)c(=O)n5C4CCC(=O)NC4=O)CC3)C[C@H](NC(=O)c3cc4cc(C(=O)P(=O)(O)O)ccc4[nH]3)C(=O)N21 (stereo partly drawn) [I-50] | 100 to 1000 |
| Cn1c(=O)n(C2CCC(=O)NC2=O)c2ccc(C[C@H]3CC[C@@H](CC(=O)N4CC[C@H]5CC[C@@H](C(=O)N[C@@H](CCC(N)=O)COc6cccc(S(C)(=O)=O)c6)N5C(=O)[C@@H](NC(=O)c5cc6cc(C(=O)P(=O)(O)O)ccc6[nH]5)C4)CC3)cc21 (stereo partly drawn) [I-51] | 10 to 100 |
| Cn1c(=O)n(C2CCC(=O)NC2=O)c2ccc(C[C@H]3CC[C@@H](CCN4CC[C@H]5CC[C@@H](C(=O)N[C@@H](CCC(N)=O)C(=O)NCc6ccc(S(C)(=O)=O)cc6)N5C(=O)[C@@H](NC(=O)c5cc6cc(C(=O)P(=O)(O)O)ccc6[nH]5)C4)CC3)cc21 (stereo partly drawn) [I-52, 2-[[(5S,8S,10aR)-8-[[(1S)-3-carbamoyl-1-[[(4-methanesulfonylphenyl)methyl]carbamoyl]propyl]carbamoyl]-6-oxo-3-[2-[(1s,4s)-4-[[1-(2,6-dioxopiperidin-3-yl)-3-methyl-2-oxo-1,3-benzodiazol-5-yl]methyl]cyclohexyl]ethyl]-octahydropyrrolo[1,2-a][1,5]diazocin-5-yl]carbamoyl]-1H-indole-5-carbonylphosphonic acid] | 100 to 1000 |
| Cc1ncsc1-c1ccc([C@H](C)NC(=O)[C@@H]2C[C@@H](O)CN2C(=O)[C@@H](NC(=O)CCCc2cccc(OC[C@H](CCC(N)=O)NC(=O)[C@@H]3CC[C@@H]4CCN(C(=O)C(C)C)C[C@H](NC(=O)c5cc6cc(C(=O)P(=O)(O)O)ccc6[nH]5)C(=O)N43)c2Cl)C(C)(C)C)cc1 [I-54] | < 10 |
| Cc1ncsc1-c1ccc([C@H](C)NC(=O)[C@@H]2C[C@@H](O)CN2C(=O)[C@@H](NC(=O)CC2CCC(c3cccc(OC[C@H](CCC(N)=O)NC(=O)[C@@H]4Cc5cccc6c5N4C(=O)[C@@H](NC(=O)c4cc5cc(C(=O)P(=O)(O)O)ccc5[nH]4)CC6)c3Cl)CC2)C(C)(C)C)cc1 (stereo partly drawn) [I-55] | 10 to 100 |
| Cc1ncsc1-c1ccc([C@H](C)NC(=O)[C@@H]2C[C@@H](O)CN2C(=O)[C@@H](NC(=O)CC2CCC(c3cccc(OC[C@H](CCC(N)=O)NC(=O)[C@@H]4Cc5cccc6c5N4C(=O)[C@@H](NC(=O)c4cc5cc(C(=O)P(=O)(O)O)ccc5[nH]4)CC6)c3Cl)CC2)C(C)(C)C)cc1 (stereo partly drawn) [I-56] | 100 to 1000 |

Same assay, conditions: read-out: STAT3 HiBIT A549 degradation 24 h: Average external-Abs DC50, 24 h compound incubation

| Structure (SMILES) | DC50 [nM] |
| --- | --- |
| CC(C)c1ccc(CNC(=O)[C@H](CCC(N)=O)NC(=O)[C@@H]2CC[C@@H]3CCN(C(=O)[C@H]4CC[C@@H](CCc5ccc6c(c5)n(C)c(=O)n6C5CCC(=O)NC5=O)CC4)C[C@H](NC(=O)c4cc5cc(C(=O)P(=O)(O)O)ccc5[nH]4)C(=O)N32)cc1Cl (stereo partly drawn) [I-33] | 10 to 100 |
| Cn1c(=O)n(C2CCC(=O)NC2=O)c2ccc(C[C@H]3CC[C@@H](CC(=O)N4CC[C@H]5CC[C@@H](C(=O)N[C@@H](CCC(N)=O)C(=O)NCc6ccc(S(C)(=O)=O)c(F)c6)N5C(=O)[C@@H](NC(=O)c5cc6cc(C(=O)P(=O)(O)O)ccc6[nH]5)C4)CC3)cc21 (stereo partly drawn) [I-46] | 10 to 100 |
